# Experimental data from ChEMBL document CHEMBL6182872, “Synthesis of Benzo[h]quinoline derivatives and evaluation of their insecticidal activity against Culex pipiens L. larvae” (Eur J Med Chem, 2025).
# Tested on: Culex pipiens
# Assay: Toxicity in Culex pipiens at third larval instar measured after 24 hrs
# Format: organism-based
row,SMILES,LC50 [µg/mL]
1,Cc1ccc(C(=O)C/C(=C\c2cc3ccc4ccccc4c3nc2Cl)C(=O)N/N=C/c2ccccc2O)cc1,29.3
2,CCCCCCCCCCCC(=O)NN1C(=O)/C(=C/c2cc3ccc4ccccc4c3nc2Cl)C=C1c1ccc(C)cc1,0.4
3,COc1ccc(/C=N/NC(=O)/C(=C/c2cc3ccc4ccccc4c3nc2Cl)CC(=O)c2ccc(C)cc2)cc1OC,202
4,Cc1ccc(C(=O)C/C(=C\c2cc3ccc4ccccc4c3nc2Cl)C(=O)NNC(=O)CCC(=O)NNC(=O)/C(=C/c2cc3ccc4ccccc4c3nc2Cl)CC(=O)c2ccc(C)cc2)cc1,136
5,CC(=O)NNC(=O)/C(=C/c1cc2ccc3ccccc3c2nc1Cl)CC(=O)c1ccc(C)cc1,116
6,Cc1ccc(C2=C/C(=C\c3cc4ccc5ccccc5c4nc3Cl)C(=O)N2NC(=O)c2ccccc2)cc1,4.9
7,Cc1ccc(C2=C/C(=C\c3cc4ccc5ccccc5c4nc3Cl)C(=O)N2NC(=O)CCl)cc1,23.9
8,CC(=O)NN1C(=O)/C(=C/c2cc3ccc4ccccc4c3nc2Cl)C=C1c1ccc(C)cc1,97.5
9,Cc1ccc(C(=O)C/C(=C\c2cc3ccc4ccccc4c3nc2Cl)C(=O)NN)cc1,86.4
10,CC(=O)N(C(C)=O)N1C(=O)/C(=C/c2cc3ccc4ccccc4c3nc2Cl)C=C1c1ccc(C)cc1,329
11,CCOP(=S)(OCC)Oc1nc(Cl)c(Cl)cc1Cl [CHLORPYRIFOS],272
